A word on the EC50: it is the concentration that produces a half-maximal response.

Data set [1] deals with T1, PD1:PDL1 interaction (Homo sapiens, UniProt Q15116).
T1 construct: purchased BPS Bioscience 72005
In words: PD1/PDL1 immunoblocking ELISA (BPS Bioscience kit cat # 72005). Format: binding. The following applies: for LE (ligand efficiency): LE = -RTln(EC50)/HA, HA = non-hydrogen atoms omitting the strap (RWV•••VWE). (An ELISA detects its analyte on a solid surface through an enzyme-linked reagent.)

Data set [2] is described as follows: Variable-temperature CD melting curves (CD-melts at 228±2 nm and 202±2 nm), individual and global two-state fits. Type of data set: physicochemical. The following applies: for ΔGF0: CD-melt at 228±2 nm, individual two-state Gibbs-Helmholtz fit (Origin 9.0), phosphate buffer 15 mM pH 6.5 ± MeOH; for Tm / Hairpin %-fold 291K / Hairpin %-fold 310K: Table S5, individual fit; for Tm: 228±2 nm; for -TΔSF0 / ΔCpF0 / ΔHF0 / ΔHm: as E16; for VT-CD %-fold: folded fraction (χF) at 25 °C from CD-melts, (R) regular / (B) bulged fold; for VT-CD %-fold / VT-CD Tm (°C): phosphate buffer 15 mM pH 6.5, up to 20% MeOH; for VT-CD Tm (°C): melting temperature from CD-melts. How it is done: Recently, our laboratory brought forward a novel synthetic technology for the synthesis of acyclic β-hairpins with long loops. […] To compare hairpins’ stability, both regular (R) and bulged (B) scaffolds were crafted around a flexible 10-residue model loop (G4K2G4) and analyzed by CD (circular dichroism) spectroscopy (Fig. 2(A), see ESI, ^† Table S5). The […] structure of these model scaffolds 1avs.2a in solution were recorded in the far-UV CD spectra. […] The CD-exciton intensity was therefore used as a global probe to determine the %-folding of ADAPTins and to obtain melting curves corresponding to the hairpin fraying mechanism upon a gradual increase of temperature (0 to 95 °C).[68] […] In addition, NMR (nuclear magnetic resonance) chemical shifts were measured to determine variations in backbone […] structures (Fig. 2(B)). Secondary chemical shift deviations (CSDs) were calculated against random coil values[69] for both ADAPTin scaffolds 1vs.2 to verify that the hairpins were folded and if any variation of conformational rigidity exist within the loops. […]
Mass Spectrometer coupled to a Vanquish™ Neo UHPLC System (Thermo Scientific™). Peptide solutions for circular dichroism (CD) were prepared within a concentration range of 15-120 µM in a phosphate buffer (15 mM, […]
measured accurately using a JASCO V-670 spectrophotometer relied on the combined molar absorptivity of Trp (ε280 = 5580 M-1 .cm-1 per Trp) and Tyr (ε280 = 1280 M-1 .cm-1 per Tyr) to determine each sample's concentration.
CD spectra were recorded using a JASCO J-810 Spectropolarimeter equipped with a temperature controller module JASCO PFD-425S. Raw CD melting curves were processed in SpectraGryph, and fitting was performed in OriginPro 9.0 (Originlab Corporation, U.S.A.). NMR samples were prepared by reconstituting freeze -dried peptides (~ 1-5 mg) in mixture of water and DMSO -d6 (90:10 v/v) using 2,2-dimethyl-2-silapentane-5-sulfonate (DSS) as internal standard for chemical shifts (0 ppm), and spectra were recorded at 291 K (18 °C) unless otherwise stated. Chemical shifts ( δ) are reported in ppm. Samples for NMR experiments were prepared in a range of 3-10 mM of peptide in solution unless otherwise noted.

The mark [3] stands for this setting: ELISA, mean of three independent experiments, read-out: EC50 Value.
[4] abbreviates: two-state fit of the CD melt θ - θcoil(95) vs T, 0-95 °C, l 0.1 cm, peptide c 3.2e-5 to 5e-5 M.
Setting [5] is: xlsx sheet of the peptide, individual fit of CD-melt.
The mark [6] stands for this setting: variable-temperature CD melt 0-95 °C, θ - θcoil(95) vs T, l = 0.1 cm, individual two-state fit.

Molecules are shown by their SMILES. Like-named read-outs stand apart in the source and are kept apart here. Square brackets hold non-standard residues; d marks the D form. Peptide text beside a SMILES is read from it. * marks the point of attachment. Dab = NCC[C@H](N)C(=O)O; X1 = CN(C)C/C=C/C(=O)* A value given as a limit tells only on which side of the number the result lay.

T1 sequence (Q15116 25-167 limits assumed): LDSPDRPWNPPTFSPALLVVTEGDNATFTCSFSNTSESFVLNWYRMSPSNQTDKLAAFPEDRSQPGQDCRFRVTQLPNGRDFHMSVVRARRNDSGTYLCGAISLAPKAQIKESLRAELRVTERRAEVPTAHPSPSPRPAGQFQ

Take `CC[C@H](C)[C@H](NC(=O)[C@H](CC(=O)O)NC(=O)[C@H](CC(C)C)NC(=O)[C@H](CC(=O)O)NC(=O)[C@H](CCCNC(=N)N)NC(=O)[C@H](Cc1c[nH]c2ccccc12)NC(=O)[C@@H](NC(=O)[C@H](Cc1c[nH]c2ccccc12)NC(=O)[C@@H](N)CCCNC(=N)N)C(C)C)C(=O)N[C@@H](C)C(=O)N[C@H](C(=O)N[C@H](C(=O)N[C@@H](CCCNC(=N)N)C(=O)N[C@@H](CC(=O)O)C(=O)N[C@@H](Cc1ccc(O)cc1)C(=O)N[C@@H](Cc1c[nH]c2ccccc12)C(=O)N[C@H](C(=O)N[C@@H](Cc1c[nH]c2ccccc12)C(=O)N[C@@H](CCC(=O)O)C(=O)O)C(C)C)[C@@H](C)O)[C@@H](C)O` [1f] (H-RWVWRDLDIATTRDYWVWE-OH): the EC50 in data set [1] (setting [3]) was 3.36 µM. Also, the “LE (ligand efficiency)” value in data set [1] was determined as 0.06. Moreover, the ΔGF0 in data set [2] (0-95 °C) was -0.49 ± 0.01 kcal/mol. In addition, in data set [2], the Tm was 39.4 oC, the “Hairpin %-fold 310K” value is given as 53 ± 1%, the “-TΔSF0” value worked out at 9.96 ± 0.06 kcal/mol and the ΔCpF0 is on record as -15 ± 3 cal.deg-1.mol-1. Further, in data set [2], the ΔHF0 is -10.5 ± 0.06 kcal/mol, the ΔHm is -10.7 ± 0.04 kcal/mol, the VT-CD %-fold was 78% (R) and the “VT-CD Tm (°C)” value stood at 39 °C. Besides, in data set [2] (291 K), the “Hairpin %-fold 291K” value amounted to 78 ± 1%. For the same compound, in data set [2] (setting [4]), the “DHm (fitted value, results from OriginPro)” value was -10.6792 kcal/mol and the “Tm (fitted value, results from OriginPro)” value came to 312.539 K.
On to `CSCC[C@H](NC(=O)[C@H](CC(=O)O)NC(=O)CNC(=O)[C@H](CCCNC(=N)N)NC(=O)[C@H](Cc1ccc(O)cc1)NC(=O)[C@H](CC(=O)O)NC(=O)[C@H](CCCNC(=N)N)NC(=O)[C@H](CCCNC(=N)N)NC(=O)[C@H](C)NC(=O)[C@@H](NC(=O)[C@H](Cc1c[nH]c2ccccc12)NC(=O)[C@@H](N)CCCNC(=N)N)C(C)C)C(=O)NCC(=O)N[C@@H](Cc1ccccc1)C(=O)N[C@@H](CC(=O)O)C(=O)N[C@@H](Cc1ccc(O)cc1)C(=O)N[C@@H](Cc1c[nH]c2ccccc12)C(=O)N[C@H](C(=O)N[C@@H](Cc1c[nH]c2ccccc12)C(=O)N[C@@H](CCC(=O)O)C(=O)O)C(C)C` [2b] (H-RWVARRDYRGDMGFDYWVWE-OH), for which the EC50 in data set [1] (setting [3]) was 7.05 µM. The “LE (ligand efficiency)” value in data set [1] was determined as 0.06. This compound returned an EC50 in data set [1] ([PD1•PDL1] blocking EC50, Fig. 3B, cut-off bars of congeneric pairs (Phe/Trp vs Gly), n = 3) of more than 5 µM. This compound also displayed a ΔGF0 in data set [2] (0-95 °C) of -1.24 ± 0.01 kcal/mol. The “TM (°C)” value in data set [2] (Fig. 2, CD-melts of regular vs bulged scaffolds) was 59 °C. Besides, in data set [2], the Tm is 59.1 oC, the “Hairpin %-fold 310K” value worked out at 81 ± 1%, the “-TΔSF0” value worked out at 7.65 ± 0.03 kcal/mol and the ΔCpF0 is given as -193 ±1 cal.deg-1.mol-1. In addition, in data set [2], the ΔHF0 is -8.89 ± 0.03 kcal/mol, the VT-CD %-fold was 92% (B) and the “VT-CD Tm (°C)” value stood at 59 °C. The “Hairpin %-fold 291K” value in data set [2] (291 K) was found to be 92 ± 1%. Further, in data set [2] (setting [5]), the “DHm, fitted value from OriginPro” value is -15.492 kcal/mol and the “Tm, fitted value from OriginPro” value was 332.248 K.
`CC(C)[C@H](NC(=O)[C@H](Cc1c[nH]c2ccccc12)NC(=O)[C@@H](N)CCCNC(=N)N)C(=O)N[C@@H](C)C(=O)N[C@@H](CCCNC(=N)N)C(=O)N[C@@H](CCCNC(=N)N)C(=O)N[C@@H](CC(=O)O)C(=O)N[C@@H](Cc1ccc(O)cc1)C(=O)N[C@@H](CCCNC(=N)N)C(=O)N[C@@H](Cc1ccccc1)C(=O)N[C@@H](CC(=O)O)C(=O)N[C@@H](CCNC(=O)/C=C/CN(C)C)C(=O)NCC(=O)N[C@@H](Cc1ccccc1)C(=O)N[C@@H](CC(=O)O)C(=O)N[C@@H](Cc1ccc(O)cc1)C(=O)N[C@@H](Cc1c[nH]c2ccccc12)C(=O)N[C@H](C(=O)N[C@@H](Cc1c[nH]c2ccccc12)C(=O)N[C@@H](CCC(=O)O)C(=O)O)C(C)C` [2cc] (H-RWVARRDYRFD[Dab](X1)GFDYWVWE-OH; N-terminus assumed): the “LE (ligand efficiency)” value in data set [1] is on record as 0.13. The compound also displayed a ΔGF0 in data set [2] (0-95 °C) of -0.93 ± 0.002 kcal/mol. Also, in data set [2], the Tm amounted to 48.7 oC, the “Hairpin %-fold 310K” value was 70 ± 1%, the “-TΔSF0” value was 8.50 ± 0.04 kcal/mol and the ΔCpF0 was -268 ± 2 cal.deg-1.mol-1. In data set [2], the ΔHF0 is -9.43 ± 0.04 kcal/mol and the ΔHm was -15.8 ± 0.04 kcal/mol. In data set [2] (291 K), the “Hairpin %-fold 291K” value came out at 87 ± 1%. Besides, in data set [2] (global fit (shared maximum molar ellipticity), 228 nm), the “Tm 228 nm Glob.” value was determined as 51.7 oC. For the same compound, in data set [2] (global fit, 202 nm), the “Tm 202 nm Glob.” value turned out to be 9.7 oC. The “χF (291 K) 202 nm Glob.” value in data set [2] (global fit, 202 nm, 291 K) amounted to 47%. In addition, the “χF (291 K) 228 nm Glob.” value in data set [2] (global fit, 228 nm, 291 K) was 95%. Besides, in data set [2] (individual fit, 202 nm, 291 K), the “χF (291 K) 202 nm Indiv.” value is 83%. Also, the “χF (291 K) 228 nm Indiv.” value in data set [2] (individual fit, 228 nm, 291 K) came out at 88%. Moreover, the “Tm 228 nm Indiv.” value in data set [2] (individual fit, exciton band 228 nm) is given as 49.8 oC. Further, the “Tm 202 nm Indiv.” value in data set [2] (individual fit, β-bulge band 202 nm) is listed as 44.3 oC. For the same compound, the “DHm (fitted value, OriginPro)” value in data set [2] (two-state fit of the CD melt (θ - θcoil(95) vs T, 0-95 °C), l 0.1 cm, enthalpy of folding at Tm) is -15.8096 kcal/mol.
For `CSCC[C@H](NC(=O)[C@H](CC(=O)O)NC(=O)CNC(=O)[C@H](CCCNC(=N)N)NC(=O)[C@H](Cc1ccc(O)cc1)NC(=O)[C@H](CC(=O)O)NC(=O)[C@H](CCCNC(=N)N)NC(=O)[C@H](CCCNC(=N)N)NC(=O)[C@H](C)NC(=O)[C@@H](NC(=O)[C@H](Cc1c[nH]c2ccccc12)NC(=O)[C@@H](N)CCCNC(=N)N)C(C)C)C(=O)NCC(=O)N[C@@H](Cc1ccccc1)C(=O)N[C@@H](CC(=O)O)C(=O)N[C@@H](Cc1ccc(O)cc1)C(=O)N[C@@H](Cc1c[nH]c2ccccc12)C(=O)N[C@@H](Cc1c[nH]cn1)C(=O)N[C@@H](Cc1c[nH]c2ccccc12)C(=O)N[C@@H](CCC(=O)O)C(=O)O` [2d] (H-RWVARRDYRGDMGFDYWHWE-OH), the “LE (ligand efficiency)” value in data set [1] is listed as 0.06. In data set [2] (0-95 °C), this compound gave a ΔGF0 of -1.59 ± 0.01 kcal/mol. Further, in data set [2], the Tm is 50.9 oC, the “Hairpin %-fold 310K” value was 80 ± 1%, the “-TΔSF0” value turned out to be 18.2 ± 0.2 kcal/mol and the ΔCpF0 is given as 0 cal.deg-1.mol-1. Moreover, in data set [2], the ΔHF0 was -19.8 ± 0.2 kcal/mol, the ΔHm was -19.8 ± 0.07 kcal/mol, the VT-CD %-fold is 97% (B) and the “VT-CD Tm (°C)” value was 51 °C. The “Hairpin %-fold 291K” value in data set [2] (291 K) worked out at 97 ± 1%. Also, in data set [2] (fraction folded at 291 K from two-state fit of CD-melt), the “%fold 291K” value was found to be 97%. Further, in data set [2] (setting [6]), the “DHm (fitted value, OriginPro two-state fit of CD-melt)” value was -19.8087 kcal/mol and the “Tm (fitted value, OriginPro two-state fit of CD-melt)” value is 324.048 K.

Source of the values: article PMC11562385 (RSC Chemical Biology, 2024).
